Assay results reported in patent US12168003B2, “Selective inhibition of T follicular helper cells for treatment of autoimmune disorders” (priority 2019, dated 2024).

System: eIF4E
Assay: Silencing of eIF4E in OT2 T cells by lentivirus shRNA, adoptive transfer and OVA/Alum
Assay type: in vivo, mouse
Method: HEK 293T cells were transfected with pTRIPZ plasmid expressing NS shRNA ([…] (SEQ ID NO: 5)) or eIF4E shRNA ([…] (SEQ ID NO: 6)) along with psPAX2 and pMD2.G in Lipofectamine™ 2000 and Opti-MEM®. Supernatant was collected 48 hours later and centrifuged at 3000×g for 15 minutes at room temperature. Cell debris pellet was discarded and supernatant was incubated with PEG-it™ (System Biosciences) at 4° C. for 24 to 48 hours and then centrifuged for 1500×g for 30 minutes at 4° C. Supernatant was discarded and viral pellet was resuspended in cold PBS and frozen at −80° C. until use.
CD4^+ T cells were isolated (EasySep™ CD4^+ T cell isolation; StemCell) from OT2 mice (>95% Vβ5.1/5.2) using negative selection. OT2 T cells were activated in mouse T cell media (RPMI containing 10% FBS, 55 μM 2-ME, 25 mM HEPES, 100 uM Sodium pyruvate, 2 mM Glutamax, non-essential amino acids, 100 U/mL penicillin, and 100 μg/mL streptomycin) and soluble 1 μg/mL anti-CD28 with 50 U/mL IL-2 on plates coated with 10 μg/mL anti-CD3 for 3 days. Following activation, cells were spin-transfected at 3×10^6 cells in 1 mL in 6-well plates with lentivirus and 4 μg/mL dextran (Sigma D9885) at 2,000×g for 60 minutes at 30° C. with no acceleration or break (Kurachi et al., “Optimized Retroviral Transduction of Mouse T Cells for in Vivo Assessment of Gene Function,” Nat. Protoc. 12(9):1980-1998 (2017), which is hereby incorporated by reference in its entirety). Following spinoculation, cells were centrifuged and supernatant was decanted and replaced with fresh media. The next day (day 5) 2 μg/mL puromycin (Gibco) and PMA/ionomycin (BioLegend®) are added to the T cells and incubated for 3 days. On day 8, media was replaced and cells were incubated with PMA/ionomycin again for another 3 days. On day 10, it was confirmed that control cells not transfected with virus were >98% dead and 1.5×10^6 OT2 NS or OT2 eIF4Esh were transferred i.p. to CD45.1 mice. One day following adoptive transfer, mice were placed on doxycycline diet (200 mg/kg) and remained on this diet for the entire study. […]

Q: What does the source list for “GCGTCAAGCAATCGAGATTTG (SEQ ID NO: 6) (expressed or natural sequence) [eIF4E shRNA, doxycycline-inducible eIF4E shRNA expressed from pTRIPZ lentivirus in OT2 T cells]”?
A: eIF4E silencing in spleen and blood transduced OT2 T cells (lower eIF4E level) (Dox-inducible shRNA, seven days following Dox addition, vs NS shRNA): 3 fold; fewer TFH cells formed by OT2 T cells (day 15 post-transfer, OVA/Alum, vs control NS OT2 cells): 3 fold; level of OT2 T cells in the spleen (day 15 post-transfer, vs NS OT2 cells): no impact
